Toxic doses and inconclusive results are not listed. How the source made its calls: active means survival T/C of 150% or more; inactive means T/C below 125% in these data.
Tested on: CD2F1 mice, L1210 leukemia ip, survival T/C
Assay: NCI In Vivo Anticancer Drug Screen. Data for tumor model L1210 Leukemia (intraperitoneal) in CD2F1 (CDF1) mice
Conditions: higher = longer survival
Method in brief: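 Activity against a transplanted murine tumor was judged by comparing the compound group with a vehicle group. The outcome in the treated animals was divided by that in the controls.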

[1] = endpoint: mean survival time, dose: 100.0 mg/kg/injection, schedule: Q01DX009 (ip), vehicle: saline with Tween-80
[2] = endpoint: mean survival time, dose: 100.0 mg/kg/injection, schedule: Q04DX003 (ip), vehicle: saline with Tween-80
[3] = endpoint: mean survival time, dose: 200.0 mg/kg/injection, schedule: Q01DX009 (ip), vehicle: saline with Tween-80
[4] = endpoint: mean survival time, dose: 200.0 mg/kg/injection, schedule: Q04DX003 (ip), vehicle: saline with Tween-80
[5] = endpoint: mean survival time, dose: 400.0 mg/kg/injection, schedule: Q04DX003 (ip), vehicle: saline with Tween-80
[6] = endpoint: mean survival time, dose: 400.0 mg/kg/injection, schedule: Q01DX009 (ip), vehicle: saline with Tween-80

Measured: T/C

CC(CNC(=O)C12CC3CC(CC(C3)C1)C2)NC(=O)C12CC3CC(CC(C3)C1)C2 (stereo unspecified)
inactive: endpoint: median survival time, dose: 12.5 mg/kg/injection, schedule: Q01DX005 (ip), vehicle: DMSO 101 % of control | endpoint: median survival time, dose: 25.0 mg/kg/injection, schedule: Q01DX005 (ip), vehicle: DMSO 104 % of control | endpoint: median survival time, dose: 50.0 mg/kg/injection, schedule: Q01DX005 (ip), vehicle: DMSO 101 % of control | endpoint: median survival time, dose: 100.0 mg/kg/injection, schedule: Q01DX005 (ip), vehicle: DMSO 98 % of control | endpoint: median survival time, dose: 200.0 mg/kg/injection, schedule: Q01DX005 (ip), vehicle: DMSO 101 % of control

CC(S)c1ccccc1 (stereo unspecified)
inactive: endpoint: mean survival time, dose: 50.0 mg/kg/injection, schedule: Q01DX009 (ip), vehicle: saline with Tween-80 90 % of control | [1] 102 % of control | [2] 104 % of control | [3] 104 % of control | [4] 98 % of control

CCC1=[N+](C)c2ccccc2C1(C)C
inactive: endpoint: mean survival time, dose: 100.0 mg/kg/injection, schedule: Q04DX003 (ip), vehicle: saline 104 % of control

Cc1csc(NC(=O)Nc2ccc(F)cc2[N+](=O)[O-])n1
inactive: endpoint: mean survival time, dose: 12.5 mg/kg/injection, schedule: Q01DX009 (ip), vehicle: saline 103 % of control | endpoint: mean survival time, dose: 25.0 mg/kg/injection, schedule: Q01DX009 (ip), vehicle: saline 112 % of control | endpoint: mean survival time, dose: 50.0 mg/kg/injection, schedule: Q01DX009 (ip), vehicle: saline 103 % of control

CC1(C)CC2(OC2c2ccccc2)C(=O)c2ccccc21 (stereo unspecified)
inactive: endpoint: mean survival time, dose: 12.5 mg/kg/injection, schedule: Q01DX009 (ip), vehicle: Klucel (hydroxypropylcellulose) (HPC) 96 % of control | endpoint: mean survival time, dose: 25.0 mg/kg/injection, schedule: Q01DX009 (ip), vehicle: Klucel (hydroxypropylcellulose) (HPC) 92 % of control | endpoint: mean survival time, dose: 50.0 mg/kg/injection, schedule: Q01DX009 (ip), vehicle: Klucel (hydroxypropylcellulose) (HPC) 87 % of control | endpoint: mean survival time, dose: 100.0 mg/kg/injection, schedule: Q01DX009 (ip), vehicle: Klucel (hydroxypropylcellulose) (HPC) 96 % of control | endpoint: mean survival time, dose: 200.0 mg/kg/injection, schedule: Q01DX009 (ip), vehicle: Klucel (hydroxypropylcellulose) (HPC) 94 % of control | endpoint: mean survival time, dose: 400.0 mg/kg/injection, schedule: Q01DX009 (ip), vehicle: Klucel (hydroxypropylcellulose) (HPC) 94 % of control

c1ccc2c(c1)Cn1c-2nc2ccccc21
inactive: [2] 97 % of control | [4] 97 % of control | [5] 94 % of control

Cc1csc2nc(-c3ccccc3)[nH]c(=S)c12
inactive: [2] 90 % of control | [5] 87 % of control

Cc1ccc(P(=S)(c2ccccc2)c2ccccc2)c2ccccc12
inactive: endpoint: mean survival time, dose: 100.0 mg/kg/injection, schedule: Q01DX001 (ip), vehicle: saline 104 % of control | endpoint: mean survival time, dose: 200.0 mg/kg/injection, schedule: Q01DX001 (ip), vehicle: saline 101 % of control | endpoint: mean survival time, dose: 400.0 mg/kg/injection, schedule: Q01DX001 (ip), vehicle: saline 95 % of control

NC(N)=N/C(N)=N\c1cnc([N+](=O)[O-])s1
inactive: endpoint: mean survival time, dose: 75.0 mg/kg/injection, schedule: Q01DX001 (ip), vehicle: saline 96 % of control | endpoint: mean survival time, dose: 150.0 mg/kg/injection, schedule: Q01DX001 (ip), vehicle: saline 101 % of control | endpoint: mean survival time, dose: 300.0 mg/kg/injection, schedule: Q01DX001 (ip), vehicle: saline 93 % of control

CC(C)(C)S/C(=N/N=O)NN=O
inactive: endpoint: mean survival time, dose: 100.0 mg/kg/injection, schedule: Q01DX001 (ip), vehicle: saline with Tween-80 100 % of control | endpoint: mean survival time, dose: 200.0 mg/kg/injection, schedule: Q01DX001 (ip), vehicle: saline with Tween-80 102 % of control | endpoint: mean survival time, dose: 400.0 mg/kg/injection, schedule: Q01DX001 (ip), vehicle: saline with Tween-80 94 % of control

c1ccc(CCN2CCCCC2)nc1
inactive: endpoint: mean survival time, dose: 3.13 mg/kg/injection, schedule: Q04DX003 (ip), vehicle: saline with Tween-80 93 % of control | endpoint: mean survival time, dose: 6.25 mg/kg/injection, schedule: Q04DX003 (ip), vehicle: saline with Tween-80 93 % of control

O=C(c1ccc(F)cc1)c1ccc([N+](=O)[O-])cc1
inactive: [1] 103 % of control | [3] 102 % of control | [6] 97 % of control

O=C1c2ccccc2C(=O)c2cc(S(=O)(=O)Cl)ccc21
inactive: endpoint: mean survival time, dose: 100.0 mg/kg/injection, schedule: Q01DX009 (ip), vehicle: saline 99 % of control | endpoint: mean survival time, dose: 200.0 mg/kg/injection, schedule: Q01DX009 (ip), vehicle: saline 92 % of control | endpoint: mean survival time, dose: 400.0 mg/kg/injection, schedule: Q01DX009 (ip), vehicle: saline 86 % of control

O=C(NC(CO)C(O)c1ccc(N=Nc2cccc3ccccc23)cc1)C(Cl)Cl (stereo unspecified)
inactive: [1] 100 % of control | [3] 101 % of control | [6] 101 % of control

O=C(O)CSCC(=O)c1ccccc1
inactive: [1] 98 % of control | [2] 94 % of control | [3] 100 % of control | [4] 98 % of control | [6] 98 % of control | [5] 102 % of control
